Laboratory results published in patent US20240327406A1, “POTASSIUM CHANNEL MODULATORS” (Autifony Therapeutics Limited, priority 2021, published 2024).
Values joined by “and” are separate entries in the source; they are usually repeats but may differ in a detail not shown here. Identical values can stand only once. Like-named read-outs stand apart in the source and are kept apart here.

Target: T1, human Kv3.1 channels (hKv3.1) (Homo sapiens, UniProt P48547)
T1 sequence (P48547 1-501 limits assumed): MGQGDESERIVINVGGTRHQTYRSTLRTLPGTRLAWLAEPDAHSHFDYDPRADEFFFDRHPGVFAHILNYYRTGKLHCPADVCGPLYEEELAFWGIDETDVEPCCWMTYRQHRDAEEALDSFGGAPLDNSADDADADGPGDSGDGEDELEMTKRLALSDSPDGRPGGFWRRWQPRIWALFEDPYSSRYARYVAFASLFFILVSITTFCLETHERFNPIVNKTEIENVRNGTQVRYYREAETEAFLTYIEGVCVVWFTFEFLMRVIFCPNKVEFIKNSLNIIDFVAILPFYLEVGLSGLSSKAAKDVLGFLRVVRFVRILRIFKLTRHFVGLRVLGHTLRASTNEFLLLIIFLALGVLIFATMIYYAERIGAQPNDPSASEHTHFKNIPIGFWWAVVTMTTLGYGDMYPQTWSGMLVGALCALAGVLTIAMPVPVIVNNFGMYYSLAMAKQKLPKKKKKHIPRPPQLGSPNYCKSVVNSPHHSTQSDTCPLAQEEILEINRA
Test: Measurement of Kv3 channel modulation: Kv3.1 assay (IonWorks Quattro whole-cell electrophysiology)
Type: cell-based
Conditions: for Kv3.1 max R %: normalised to maximum effect of reference compound (50 microM)
Experimental: The ability of the compounds of the invention to modulate the voltage-gated potassium channel subtypes Kv3.4/Kv3.3/Kv3.2/Kv3.1 may be determined using the following assay. Analogous methods may be used to investigate the ability of the compounds of the invention to modulate other channel subtypes.
Human embryonic kidney (HEK)-hKv3.1 cell line is generated by transfecting HEK-293 cells with an expression vector with human Kv3.1 (NM_004976.4). Cells are cultured with MEM supplemented with 10% Heat-Inactivated FBS, 2 mM L-glutamine, 1% Penicillin-Streptomycin, and 0.6 mg/ml of Geneticin (G418). HEK-hKv3.1b cells were amplified in T175 cm2 flask at 37° C. with 5% CO2, using MEM amplification medium, containing the G418 selection antibiotic (0.6 mg/ml). Cells were detached every 3-4 days, using DPBS to wash twice the flask, then TrypLE to dislodge the cells, and re-plated at a density of 2-4×10^6 cells/flask.
The day of the experiment, cells are removed from the incubator and the culture medium removed. Cells are washed with 5 ml of Dulbecco's PBS (DPBS) calcium and magnesium free and detached by the addition of 3 ml Versene (Invitrogen, Italy) followed by a brief incubation at 37° C. for 5 minutes. The flask is tapped to dislodge cells and 10 ml of DPBS containing calcium and magnesium is added to prepare a cell suspension. The cell suspension is then placed into a 15 ml centrifuge tube and centrifuged for 2 min at 1200 rpm. After centrifugation, the supernatant is removed and the cell pellet re-suspended in 4 ml of DPBS containing calcium and magnesium using a 5 ml pipette to break up the pellet. Cell suspension volume is then corrected to give a cell concentration for the assay of approximately 3 million cells per ml.
Experiments are conducted at r.t. using IonWorks Quattro™ planar array electrophysiology technology (Molecular Devices Corp.) with PatchPlate™ PPC. Stimulation protocols and data acquisition are carried out using a microcomputer (Dell Pentium 4). Planar electrode hole resistances (Rp) are determined by applying a 10 mV voltage step across each well. These measurements are performed before cell addition. After cell addition and seal formation, a seal test is performed by applying a voltage step from −80 mV to −70 mV for 160 ms. Following this, amphotericin-B solution is added to the intracellular face of the electrode to achieve intracellular access. Cells are held at −70 mV. Leak subtraction is conducted in all experiments by applying 50 ms hyperpolarizing (10 mV) prepulses to evoke leak currents followed by a 20 ms period at the holding potential before test pulses.
For hKv3.2 and hKv3.1, assays from the holding potential of −70 mV, a first test pulse at −15 mV was applied for 100 ms and after 100 ms at −70 mV a second pulse at +40 mV was applied for 50 ms. Cells were then maintained for 100 ms at −100 mV and another pulse from […] to +40 mV (duration 50 ms) was applied to clamp later the voltage at −40 mV during 200 ms
The intracellular solution contains the following (in mM): K-gluconate 100, KCl 54, MgCl2 3.2, HEPES 5, adjusted to pH 7.3 with KOH. Amphotericin-B solution is prepared as 50 mg/ml stock solution in DMSO and diluted to a final working concentration of 0.1 mg/ml in intracellular solution.
Compounds of use in the invention (or reference compounds such as N-cyclohexyl-N-[(7,8-dimethyl-2-oxo-1,2-dihydro-3-quinolinyl)methyl]-N′-phenylurea) are dissolved in dimethylsulfoxide (DMSO) at a stock concentration of 10 mM. […] Each dilution (1 μL) is transferred to another compound plate and external solution containing 0.05% pluronic acid (66 μL) is added. 3.5 μL from each plate containing a compound of the invention is added and incubated with the cells during the IonWorks Quattro™ experiment. The final assay dilution is 200 and the final compound concentrations are in the range 50 μM to 50 nM.

[1] = Table 3, Reference Examples and corresponding Examples, rounded to one decimal place, read-out: Kv3.1 pEC50 (converted)
[2] = Table 2, Example compounds, rounded to one decimal place, some compounds with two data sets (n given in cell), read-out: Kv3.1 pEC50 (converted)

With `Cc1ccc(Oc2ccc(N3C(=O)NCc4cccnc43)cn2)c2c1OCC21CC1` [RE11, reference compound] the EC50 [1] was 2000 nM.
In the case of `N#Cc1ccc(Oc2ccc(-n3c(=O)[nH]c4cccnc43)cn2)cc1OC(F)(F)F` [Example 14, 4-[[5-(2-oxo-1H-imidazo[4,5-b]pyridin-3-yl)-2-pyridyl]oxy]-2-(trifluoromethoxy)benzonitrile], the “Kv3.1 max R %” value (Table 2, Example compounds) is reported as 124% and the EC50 [2] is reported as 1000 nM.
With `O=c1[nH]c2cccnc2n1-c1ccc(Oc2cccc3c2C2(CC2)CO3)nc1` [Example 3, 3-(6-spiro[2H-benzofuran-3,1′-cyclopropane]-4-yloxy-3-pyridyl)-1H-imidazo[4,5-b]pyridin-2-one] the EC50 (Kv3.1 pEC50, Table 2, Example compounds, rounded to one decimal place, some compounds with two data sets (n given in cell)) was 100 nM and the “Kv3.1 max R %” value (Table 2, Example compounds) was 197%.
`COc1cccc(Oc2ccc(-n3c(=O)[nH]c4cnc(C)nc43)cn2)c1` [Example 28, 9-[6-(3-methoxyphenoxy)-3-pyridyl]-2-methyl-7H-purin-8-one] was tested, and the “Kv3.1 max R %” value (Table 2, Example compounds) was 140% and the EC50 [2] was 3980 nM.
With `CC1(C)COc2cccc(Oc3ncc(-n4c(=O)[nH]c5ccncc54)cn3)c21` [Example 23, 3-[2-[(3,3-dimethyl-2H-benzofuran-4-yl)oxy]pyrimidin-5-yl]-1H-imidazo[4,5-c]pyridin-2-one] the “Kv3.1 max R %” value (Table 2, Example compounds) was 101% and 107%, the EC50 [2] was 10000 nM and 7940 nM and the EC50 [1] was 7940 nM.
For `CC1(C)COc2cccc(Oc3cnc(-n4c(=O)[nH]c5cccnc54)cn3)c21` [Example 9, 3-[5-[(3,3-dimethyl-2H-benzofuran-4-yl)oxy]pyrazin-2-yl]-1H-imidazo[4,5-b]pyridin-2-one], the “Kv3.1 max R %” value (Table 2, Example compounds) was 147% and the EC50 [2] was 1260 nM.
`Cc1ccc2[nH]c(=O)n(-c3cnc(Oc4cccc5c4C4(CC4)CO5)cn3)c2n1` [Example 37, 5-methyl-3-(5-spiro[2H-benzofuran-3,1′-cyclopropane]-4-yloxypyrazin-2-yl)-1H-imidazo[4,5-b]pyridin-2-one] was tested, and the “Kv3.1 max R %” value (Table 2, Example compounds) was 124% and the EC50 [2] was 126 nM.
For `Cn1cc2[nH]c(=O)n(-c3cnc(Oc4cccc5c4C4(CC4)CO5)nc3)c2n1` [Example 22, 2-methyl-6-(2-spiro[2H-benzofuran-3,1′-cyclopropane]-4-yloxypyrimidin-5-yl)-4H-imidazo[4,5-c]pyrazol-5-one], the “Kv3.1 max R %” value (Table 2, Example compounds) was 166% and the EC50 [2] was 501 nM.
For `Cc1ccnc2c1[nH]c(=O)n2-c1ccc(Oc2cccc3c2C2(CC2)CO3)nc1` [Example 5, 7-methyl-3-(6-spiro[2H-benzofuran-3,1′-cyclopropane]-4-yloxy-3-pyridyl)-1H-imidazo[4,5-b]pyridin-2-one], the “Kv3.1 max R %” value (Table 2, Example compounds) was 132% and the EC50 [2] was 316 nM.
For `Cc1ncc2[nH]c(=O)n(-c3ccc(Oc4cccc5c4C(C)(C)CO5)nc3)c2n1` [Example 30, 9-[6-[(3,3-dimethyl-2H-benzofuran-4-yl)oxy]-3-pyridyl]-2-methyl-7H-purin-8-one], the “Kv3.1 max R %” value (Table 2, Example compounds) was 123% and the EC50 [2] was 126 nM.
With `Cc1ccc(Oc2ncc(-n3c(=O)[nH]c4cccnc43)cn2)c2c1OCC21CC1` [Example 31, 3-[2-(7-methylspiro[2H-benzofuran-3,1′-cyclopropane]-4-yl)oxypyrimidin-5-yl]-1H-imidazo[4,5-b]pyridine-2-one] the “Kv3.1 max R %” value (Table 2, Example compounds) was 217% and the EC50 [2] was 200 nM.
In the case of `O=c1[nH]c2c[nH]nc2n1-c1ccc(Oc2cccc3c2C2(CC2)CO3)nc1` [Example 34, 6-(6-spiro[2H-benzofuran-3,1′-cyclopropane]-4-yloxy-3-pyridyl)-2,4-dihydroimidazo[4,5-c]pyrazol-5-one], the “Kv3.1 max R %” value (Table 2, Example compounds) is reported as 128% and 131%, the “Kv3.1 pEC50” value (Table 2, Example compounds, rounded to one decimal place, some compounds with two data sets (n given in cell)) is reported as 5.0 (n = 2) and the EC50 [2] is reported as 10000 nM.
`Cc1ccc(Oc2ccc(-n3c(=O)[nH]c4ccncc43)cn2)c2c1OCC21CC1` [Example 35, 3-[6-(7-methylspiro[2H-benzofuran-3,1′-cyclopropane]-4-yl)oxy-3-pyridyl]-1H-imidazo[4,5-c]pyridin-2-one] was tested, and the “Kv3.1 max R %” value (Table 2, Example compounds) was 225% and the EC50 [2] was 1000 nM.
